The values that follow are results of earlier work, collected in patent US8030014B2, “Detecting agent and therapeutic agent for highly malignant breast cancer” (priority 2005, dated 2011).

Molecules are shown by their SMILES.

The series has as its system breast cancer. The note with it: paclitaxel used in addition to adriamycin plus cyclophosphamide (AC); postoperative auxiliary chemotherapy.

For `CC(=O)O[C@H]1C(=O)[C@@]2(C)[C@H]([C@H](OC(=O)c3ccccc3)[C@]3(O)C[C@H](OC(=O)[C@H](O)[C@@H](NC(=O)c4ccccc4)c4ccccc4)C(C)=C1C3(C)C)[C@]1(OC(C)=O)CO[C@@H]1C[C@@H]2O` [paclitaxel], the “lowering of annual mortality rate over AC therapy alone” value is 26%.
